# Literature values, collected in article PMC8621857, “Structural Insights into the Azole Resistance of the Candida albicans Darlington Strain Using Saccharomyces cerevisiae Lanosterol 14α-Demethylase as a Surrogate” (Journal of Fungi, 2021).
# System: CaLDM I471T
# Set-up: method as in PMID 20625155
# Conditions: detergent solubilized CaLDM I471T single-mutation; cited from earlier work
structure (smiles),measurement,value
CC(C)=CCC[C@@H](C)[C@H]1CC[C@@]2(C)C3=C(CC[C@]12C)[C@@]1(C)CC[C@H](O)C(C)(C)[C@@H]1CC3 [lanosterol],higher affinity for the endogenous substrate than the wild-type protein,2.4 fold
